Structures are written as SMILES. Values after ≈ are worked out from the molar mass of the structure shown. Read-outs that look alike come from different tables or passages of the source.

One data set can be described thus: Solubility in water. It counts as physicochemical. The note with it: trifluoroacetate salt. How it is done:
(§1) To a solution of spermine (0.8 g, 2 mmol) and triethylamine (0.3 mL) in 5 mL of DMF is added dropwise the N-oxysuccinimidechenodeoxycholate (1.0 g, 2 mmol) in 5 mL of DMF. The mixture is stirred overnight at room temperature, then poured into DCM (100 mL). The precipitate of the hydroxysuccinimide is filtered, and the filtrate is evaporated to give a liquid phase, which is poured into water (100 mL). The precipitate of the product is obtained. It is dissolved in MeOH (5 mL) and passed through a CHP-20 reverse-phase column. A […] in water solvent system is used to elute the product. The solvent is removed by evaporation, and the residue is dissolved in 1 mL of trifluoroacetic acid. The resulting solution is diluted up to 10 mL with water, filtered, and the filtrate subsequently lyophilized to afford 0.9 g (50% yield) of a solid (m.p. 96°-100° C.). […] A 5% solution of the trifluoroacetate salt of the chenodeoxycholic acid-spermine conjugate is stable at room temperature over about 12-24 h, after which a precipitate of the base separates as a slurry. TLC (MeOH:i-PrNH2 :DCM 1:1:2) Rf 0.7. IR (KBr): 3406, 2939, 2869, 1778 (COOH), 1680 (CONH--), 1553, 1458, 1196, 834, 722 cm^-1. ^1 H NMR (D2 O): δ3.75 (s, 1H), 3.4 (s, 1H), 2.8-3.15 (m, 12H), 2.2-1.2 (m, 39H), 0.9 (d, 3H), 0.86 (s, 3H), 0.55 (s, 3H). Fab MS: (M+Na^+)=598. Anal. Calc. for C34 H64 N4 O3.3CF3 COOH: C 52.5; H 7.29; N 6.09. […]

Data set [1] relates to Enterococcus faecalis 29212. The data set is described as follows: Determination of MIC against bacteria (Table 1), E. faecalis 29212. Format: cell-based. The note with it: read-out: minimum inhibitory concentration (MIC), E. faecalis 29212. How it is done: (§2) Antibiotic indicator strains Escherichia coli strain 25922, Enterococcus faecalis 29212, Pseudomonas aeruginosa 27853, and Staphylococcus aureus 29213 are obtained from the American Type Tissue Culture Collection (ATCC) in Rockville, Md. The cystic fibrosis isolate, Pseudomonas aeruginosa 39324, is also obtained from ATCC. Bacteria are routinely cultivated in cation-supplemented Mueller-Hinton broth (CAMHB) or agar at 37° C.
(§3) The minimum inhibitory concentration (MIC) of glycosylated and non-glycosylated steroidal polyamines for antibiotic indicator strains is determined by dissolving the test compounds in deionized water to a final concentration of 1 mg per mL. […] These solutions are sterilized by filtration through 0.22 micron syringe filters.
(§4) Stock solutions of individual compounds are serially diluted (two-fold) in sterile CAMHB in 96-well tissue culture dishes (Falcon) and inoculated with antibiotic indicator strains that are prepared as described below.
(§5) Antibiotic indicator strains are grown in 5 mL of CAMHB for 3-4 h at 37° C. with shaking (200 rpm) on a New Brunswick rotary shaker. Bacteria are adjusted to a turbidity that matched a 0.5 McFarland standard (ca. 10^8 CFU per mL) in sterile 0.85% saline. These bacterial suspensions are diluted 1:20 in sterile 0.85% saline and 10 μL (ca. […]) of each suspension is used to inoculate individual wells of a 96 well plate that contained different concentrations of the test compounds. Following inoculation, the plates are sealed with plastic tape, incubated for 24 h at 37° C. and visually inspected for bacterial growth. CAMHB inoculated with each of the antibiotic test strains and uninoculated CAMBH plus each of the test compounds served as positive and negative controls.

The subject of data set [2] is Pseudomonas aeruginosa 39324. As to the kind of experiment: Determination of MIC against bacteria (Table 1), P. aeruginosa 39324 (cystic fibrosis isolate). To be noted: read-out: minimum inhibitory concentration (MIC), P. aeruginosa 39324. It counts as cell-based. How it is done: as §2, §3, §4, §5
Data set [3] relates to Staphylococcus aureus 29213. The data set is described as follows: Determination of MIC against bacteria (Table 1), S. aureus 29213. Format: cell-based. The note with it: read-out: minimum inhibitory concentration (MIC), S. aureus 29213. How it is done:
as §2, §3, §4, §5

Data set [4] deals with Pseudomonas aeruginosa 27853. The data set is described as follows: Determination of MIC against bacteria (Table 1), P. aeruginosa 27853. It counts as cell-based. To be noted: read-out: minimum inhibitory concentration (MIC), P. aeruginosa 27853. How it is done:
as §2, §3, §4, §5

A short description of data set [5]: Stability of a 5% solution of the trifluoroacetate salt at room temperature. It counts as physicochemical. How it is done:
as §1

In data set [6] the test system is Escherichia coli strain 25922. The data set is described as follows: Determination of MIC against bacteria (Table 1), E. coli 25922. It counts as cell-based. To be noted: read-out: minimum inhibitory concentration (MIC), E. coli 25922. How it is done:
as §2, §3, §4, §5

The subject of the next data set is E. coli 25922. The data set is described as follows: Augmentation assay: MIC of erythromycin (Table 2), E. coli 25922. Format: cell-based. The note with it: Escherichia coli, 25922, 24 h, read-out: MIC of erythromycin, E. coli 25922. How it is done:
(§6) Stock solutions 1-2 mg/mL of test compounds are prepared in distilled water, filter-sterilized through a […] filter and diluted in CAMHB to the desired starting concentration. Aliquots of each test compound (0.1 mL), at 2× the final concentration, are added to the first rows of 96 well plates. The remaining wells of these plates are charged with 0.1 mL aliquots of each test compound at the desired final concentration. Subsequently, 0.1 mL of solutions of erythromycin, gentamicin, or vancomycin, prepared in CAMHB, are added to the first rows of these plates and serially diluted.
(§7) The wells are inoculated in duplicate with each of four antibiotic indicator strains prepared as described previously above. The final concentrations of antibiotics tested in these experiments range from 0.185-250 μg per mL. Plates containing each of the antibiotics serially diluted in CAMHB alone are also inoculated with antibiotic indicator strains to determine the MIC of erythromycin, gentamicin and vancomycin in the absence of the compounds of the invention. The plates are sealed with plastic tape, incubated in for 24 h at 37° C., visually inspected for bacterial growth. The MIC of erythromycin, gentamicin and vancomycin for each of the indicator strains in the presence or absence of test compound is subsequently determined.

A further data set has as its system P. aeruginosa 39324. As to the kind of experiment: Augmentation assay: MIC of erythromycin (Table 2), P. aeruginosa 39324. Format: cell-based. To be noted: Pseudomonas aeruginosa, 39324, 24 h, read-out: MIC of erythromycin, P. aeruginosa 39324. How it is done: as §6, §7
For the next data set, the system named is P. aeruginosa 27853. As to the kind of experiment: Augmentation assay: MIC of erythromycin (Table 2), P. aeruginosa 27853. It counts as cell-based. To be noted: Pseudomonas aeruginosa, 27853, 24 h, read-out: MIC of erythromycin, P. aeruginosa 27853. How it is done: as §6, §7
Setting [7] is: Enterococcus faecalis, 29212, CAMHB, 24 h at 37° C., tested from 1.56 to 200 μg per mL.
Where [8] appears, read: Pseudomonas aeruginosa, 39324, CAMHB, 24 h at 37° C., tested from 1.56 to 200 μg per mL.
[9] abbreviates: Staphylococcus aureus, 29213, CAMHB, 24 h at 37° C., tested from 1.56 to 200 μg per mL.
Where [10] appears, read: Pseudomonas aeruginosa, 27853, CAMHB, 24 h at 37° C., tested from 1.56 to 200 μg per mL.
Where [11] appears, read: Escherichia coli, 25922, CAMHB, 24 h at 37° C., tested from 1.56 to 200 μg per mL.

Take `C[C@H](CCC(=O)NCCCNCCCCNCCCN)[C@H]1CC[C@H]2[C@@H]3[C@H](O)C[C@@H]4C[C@H](O)CC[C@]4(C)[C@H]3CC[C@]12C` [Compound H, 3α,7α-dihydroxy-12-deoxy-5β-cholan-24-oic acid, N-(4,9-diaza-12-aminododecyl)amide]: in “Solubility in water”, the solubility in water result is “soluble in water”. Further, the MIC in data set [1] (Enterococcus faecalis, 29212, 24 h) was 3.12 µg/mL (≈ 5.41 µM); in data set [2] (Pseudomonas aeruginosa, 39324, 24 h) it was 50 to 100 µg/mL (≈ 86.7 to 173 µM); in [3] (Staphylococcus aureus, 29213, 24 h), 6.25 µg/mL (≈ 10.8 µM); in data set [4] (Pseudomonas aeruginosa, 27853, 24 h), 12.5 µg/mL (≈ 21.7 µM); in data set [6] (Escherichia coli, 25922, 24 h), 25 µg/mL (≈ 43.3 µM). The “stability of 5% solution, time before a precipitate of the base separates” value in data set [5] fell in the range of 12 to 24 h.

As to `CC[C@H]1OC(=O)[C@H](C)[C@@H](O[C@H]2C[C@@](C)(OC)[C@@H](O)[C@H](C)O2)[C@H](C)[C@@H](O[C@@H]2O[C@H](C)C[C@H](N(C)C)[C@H]2O)[C@](C)(O)C[C@@H](C)C(=O)[C@H](C)[C@@H](O)[C@]1(C)O` [Erythromycin, erythromycin], the MIC was 125 µg/mL in the data set with E. coli 25922, over 250 µg/mL with P. aeruginosa 39324 and over 250 µg/mL in the data set on P. aeruginosa 27853.

As to `NCCCNCCCCNCCCN` [spermine, N-[N-(3-aminopropyl)-4-aminobutyl]-1,3-diaminopropane, reference compound], the MIC in [1] (setting [7]) was over 200 µg/mL; in data set [2] (setting [8]) it was over 150 µg/mL; in data set [3] (setting [9]), over 200 µg/mL; in [4] (setting [10]), over 200 µg/mL; in data set [6] (setting [11]), over 200 µg/mL.

`NCCNCCNCCNCCN` [tetraethylenepentamine, reference compound]: the MIC in data set [1] (setting [7]) is over 200 µg/mL; in data set [2] (setting [8]), over 150 µg/mL; in data set [3] (setting [9]), over 200 µg/mL; in data set [4] (setting [10]) it was over 200 µg/mL; in data set [6] (setting [11]), over 200 µg/mL.

(Values after patent US5744453A, “Polyamine conjugates for treatment of infection” (priority 1996, dated 1998).)
